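In this assay, cells in 96-well plates receive the compound at five concentrations for 48 hours. Endpoints are linearly interpolated between the surrounding concentrations. GI50 is the concentration that inhibits growth by half.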 The source made the active and inactive calls. Cut-off read from the data, not from the text of the source: active = GI50 up to about 1.1 µM and inactive = higher.
Assays:
Assay in all cases: NCI anticancer screen, dose series, 48 h
[1] = test system: 786-0
[2] = test system: A498
[3] = test system: A549
[4] = test system: BT-549
[5] = test system: CAKI-1
[6] = test system: CCRF-CEM
[7] = test system: COLO 205
[8] = test system: DU-145
[9] = test system: EKVX
[10] = test system: HCC 2998
[11] = test system: HCT-116
[12] = test system: HCT-15
[13] = test system: HL-60
[14] = test system: HOP-62
[15] = test system: HOP-92
[16] = test system: HT-29
[17] = test system: IGROV-1
[18] = test system: K562
[19] = test system: KM12
[20] = test system: LOX IMVI
[21] = test system: M14
[22] = test system: MCF7
[23] = test system: MDA-MB-231
[24] = test system: MDA-MB-435
[25] = test system: MDA-N
[26] = test system: MOLT-4
[27] = test system: Malme-3M
[28] = test system: NCI-H226
[29] = test system: NCI-H23
[30] = test system: NCI-H522
[31] = test system: NCI/ADR-RES
[32] = test system: OVCAR-3
[33] = test system: OVCAR-5
[34] = test system: OVCAR-8
[35] = test system: PC-3
[36] = test system: RPMI-8226
[37] = test system: SF-268
[38] = test system: SF-295
[39] = test system: SF-539
[40] = test system: SK-MEL-2
[41] = test system: SK-MEL-5
[42] = test system: SK-OV-3
[43] = test system: SN12C
[44] = test system: SR
[45] = test system: SW-620
[46] = test system: T47D
[47] = test system: TK-10
[48] = test system: U-251
[49] = test system: UACC-257
[50] = test system: UACC-62
[51] = test system: UO-31

## O=C(CN1CCCCC1)Nc1ccc2c(c1)C1Oc3ccccc3CC1CO2 (stereo unspecified)
[1]
  GI50: 20.7 µM (inactive)
[2]
  GI50: 30.3 µM (inactive)
[3]
  GI50: 32.5 µM (inactive)
[4]
  GI50: 19.9 µM (inactive)
[5]
  GI50: 35.9 µM (inactive)
[6]
  GI50: 34.3 µM (inactive)
[7]
  GI50: 13.3 µM (inactive)
[8]
  GI50: 35.2 µM (inactive)
[9]
  GI50: 17.2 µM (inactive)
[10]
  GI50: 19.1 µM (inactive)
[11]
  GI50: 16.2 µM (inactive)
[12]
  GI50: 15.5 µM
[13]
  GI50: 46.1 µM (inactive)
[14]
  GI50: 16.9 µM (inactive)
[15]
  GI50: 18.3 µM (inactive)
[16]
  GI50: 14.5 µM (inactive)
[17]
  GI50: 21.1 µM (inactive)
[18]
  GI50: 58.9 µM (inactive)
[19]
  GI50: 20.5 µM (inactive)
[20]
  GI50: 16.4 µM (inactive)
[21]
  GI50: 18.2 µM (inactive)
[22]
  GI50: 21.8 µM (inactive)
[23]
  GI50: 17.3 µM (inactive)
[24]
  GI50: 18.7 µM (inactive)
[25]
  GI50: 19 µM (inactive)
[26]
  GI50: 31.5 µM (inactive)
[27]
  GI50: 16.7 µM (inactive)
[28]
  GI50: 21 µM (inactive)
[29]
  GI50: 24.9 µM (inactive)
[30]
  GI50: 17.9 µM (inactive)
[31]
  GI50: 23.9 µM (inactive)
[32]
  GI50: 27.8 µM (inactive)
[33]
  GI50: 18.7 µM (inactive)
[34]
  GI50: 39 µM (inactive)
[35]
  GI50: 17.7 µM (inactive)
[36]
  GI50: 28.8 µM (inactive)
[37]
  GI50: 34.2 µM (inactive)
[38]
  GI50: 19.5 µM (inactive)
[39]
  GI50: 19.1 µM (inactive)
[40]
  GI50: 20.2 µM (inactive)
[41]
  GI50: 13.8 µM (inactive)
[42]
  GI50: 32.8 µM (inactive)
[43]
  GI50: 28.4 µM (inactive)
[44]
  GI50: 23.2 µM (inactive)
[45]
  GI50: 18.8 µM (inactive)
[46]
  GI50: 16.4 µM (inactive)
[47]
  GI50: 23.8 µM (inactive)
[48]
  GI50: 18 µM (inactive)
[49]
  GI50: 19.2 µM (inactive)
[50]
  GI50: 16.4 µM (inactive)
[51]
  GI50: 21.2 µM (inactive)
